The values that follow come from patent EP4534542A1, “THIOSUGAR BASED ISOTHIOCYANATES AND USES THEREOF” (Universidad de Sevilla, priority 2023, dated 2025).

Like-named read-outs stand apart in the source and are kept apart here.

By IC50 is commonly meant the concentration needed to halve the response being measured.

The test system of assay [1] is Jurkat (Acute lymphoblastic leukaemia). In words: Antileukemic activity, cell viability (CCK-8 Cell Counting Kit). It is filed as cell-based. As to conditions: Homo sapiens, 18 h incubation, compounds 0 - 100 µM, read-out: IC50 Cancer cells Jurkat (Acute lymphoblastic leukaemia). Here is the method: (§1) HaCaT cells (human keratinocytes, reference control), A549 (human lung adenocarcinoma cells), MeWo (human melanoma cells) and T24 (human bladder cancer cells) were purchased from Cell Lines Service (CLS). Cells were grown in Dulbecco's Modified Eagle's Medium (DMEM) supplemented with 100 U/mL penicillin, 100 µg/mL streptomycin and 10% fetal bovine serum. HL60 cell line (acute myeloid leukaemia, AML) was obtained from ATCC. It was cultured in IMDM medium supplemented with 100 U/mL penicillin, 100 µg/mL streptomycin and 10% fetal bovine serum. U937 (AML) and Jurkat cells (ALL) were obtained from DMSZ, Braunschweig, Germany, and ATCC, respectively. They were cultivated in RPMI medium, supplemented with 100 U/mL penicillin, 100 µg/mL streptomycin and 10% fetal bovine serum. OPM-2 cell line (MM), was obtained from DMSZ, Braunschweig, Germany and cultured in RPMI medium supplemented with 100 U/mL penicillin, 100 µg/mL streptomycin, 10% fetal bovine serum and 1X GlutaMAXTM. All cell lines were cultured at 37 ° C with 5% CO2 in a humidified incubator. Cell culture reagents were purchased from Biowest.
(§2) For the leukemic cell lines, the CCK-8 Cell Counting Kit (Dojindo Molecular Technologies) was used according to manufacturers instructions. Briefly, 50.000 cells were seeded in each well of a 96 well plate, and they were treated with increased amounts (0 - 100 µM) of each of the compounds, and incubated for 18 h at 37 °C, 5% CO2. After this period, 7 µl of the CCK-8 reagent were added to each well, and cells were further incubated for 2 h at 37 °C, 5% CO2. OD at 450 nm was obtained using a MultiskanTM GO microplate reader (Thermo Fisher Scientific, Waltham, MA, EE.UU). Cell viability in each condition was normalized to the measurement obtained in the non treated samples (100%), and were represented as average ± standard error of the mean (SEM).
(In general: Tetrazolium dyes change colour on reduction, which living cells bring about.)

Assay [2] concerns OPM-2 (Multiple myeloma). The assay is described as above. The conditions noted are these: Homo sapiens, 18 h incubation, compounds 0 - 100 µM, read-out: IC50 Cancer cells OPM-2 (Multiple myeloma). It is filed as cell-based. Here is the method: as §1, §2
Assay [3] has as its system HL60 (Acute myeloid leukaemia). Described as above. It is filed as cell-based. The conditions noted are these: Homo sapiens, HL-60; 18 h incubation, compounds 0 - 100 µM; read-out: IC50 Cancer cells HL60 (Acute myeloid leukaemia). The procedure: as §1, §2
Assay [4] concerns U937 (Acute myeloid leukaemia). The assay is described as above. It is filed as cell-based. The conditions noted are these: Homo sapiens, U-937; 18 h incubation, compounds 0 - 100 µM; read-out: IC50 Cancer cells U937 (Acute myeloid leukaemia). Here is the method: as §1, §2
The test system of assay [5] is HaCaT cells. Nature of the assay: Cell viability assay (resazurin), cytotoxicity in non-malignant cells. It is filed as cell-based, human. As to conditions: Homo sapiens, HaCaT, read-out: IC50 HaCaT (Non-malignant keratinocyte). Here is the method:
(§3) Cells were grown in Dulbecco's Modified Eagle's Medium (DMEM) supplemented with 100 U/mL penicillin, 100 µg/mL streptomycin and 10% fetal bovine serum. HL60 cell line (acute myeloid leukaemia, AML) was obtained from ATCC. It was cultured in IMDM medium supplemented with 100 U/mL penicillin, 100 µg/mL streptomycin and 10% fetal bovine serum. U937 (AML) and Jurkat cells (ALL) were obtained from DMSZ, Braunschweig, Germany, and ATCC, respectively. They were cultivated in RPMI medium, supplemented with 100 U/mL penicillin, 100 µg/mL streptomycin and 10% fetal bovine serum. […] All cell lines were cultured at 37 ° C with 5% CO2 in a humidified incubator. Cell culture reagents were purchased from Biowest. Exponentially growing cells (3000-6000 cells per well) were seeded in 96-well plates. After 24 hours, cells were treated with the drugs for 72 hours. The cell viability was then estimated with the resazurin assay, a colorimetric technique based on the capability of viable cells to reduce the blue reagent resazurin to the pink-soluble product resorufin. The amount of resorufin produced is proportional to the number of viable cells. Briefly, cells were washed once with phosphate buffered saline (PBS) and 150 µL resazurin (20 µg/mL in medium) was added to each well. The plates were incubated for 3 hours at 37 °C, 5% CO2, and finally optical densities were measured at 540 and 620 nm with a multiwell plate spectrophotometer reader (Multiskan EX Labsystems). Cell viability was calculated as a percentage compared to non-treated cells. The results were expressed as the means ± standard error of the mean (SEM). All data are from at least three independent experiments.
Background: The colour change of resazurin is a common sign of viable cells or microbes.

Assay [6] relates to MeWo (human melanoma cells). Nature of the assay: Cell viability assay (resazurin), cytotoxic activity against solid tumours. It is filed as cell-based. The conditions noted are these: for IC50: Homo sapiens, MeWo, read-out: IC50 MeWo (Melanoma; BRAF WT); for S.I. MeWo (Selectivity Index): IC50 HaCaT divided by IC50 MeWo, mean of independent experiments. The procedure:
as §3, with “The plates were incubated for 3 hours at 37 °C, 5% CO2, and finally optical densities were measured at 540 and 620 nm with a multiwell plate spectrophotometer reader (Multiskan EX Labsystems).” left out, “experiments. The selectivity index (S.I.) values were calculated over each cancer cell line as the mean of the IC50 value in the non-malignant cell line (HaCaT) by the IC50 in the respective cancer cell line obtained in each independent experiment.” for “experiments.”

For assay [7], the system named is A549 (human lung adenocarcinoma cells). The assay is described as above. It is filed as cell-based. The conditions noted are these: for IC50: Homo sapiens, read-out: IC50 A549 (Lung adenocarcino ma); for S.I. A549 (Selectivity Index): IC50 HaCaT divided by IC50 A549, mean of independent experiments. Here is the method:
as §3, with “The plates were incubated for 3 hours at 37 °C, 5% CO2, and finally optical densities were measured at 540 and 620 nm with a multiwell plate spectrophotometer reader (Multiskan EX Labsystems).” left out, “experiments. The selectivity index (S.I.) values were calculated over each cancer cell line as the mean of the IC50 value in the non-malignant cell line (HaCaT) by the IC50 in the respective cancer cell line obtained in each independent experiment.” for “experiments.”

Assay [8] concerns T24 (human bladder cancer cells). Described as above. It is filed as cell-based. The conditions noted are these: for IC50: Homo sapiens, read-out: IC50 T24 (Bladder cancer); for S.I. T24 (Selectivity Index): IC50 HaCaT divided by IC50 T24, mean of independent experiments. Here is the method:
as §3, with “The plates were incubated for 3 hours at 37 °C, 5% CO2, and finally optical densities were measured at 540 and 620 nm with a multiwell plate spectrophotometer reader (Multiskan EX Labsystems).” left out, “experiments. The selectivity index (S.I.) values were calculated over each cancer cell line as the mean of the IC50 value in the non-malignant cell line (HaCaT) by the IC50 in the respective cancer cell line obtained in each independent experiment.” for “experiments.”

Where [9] appears, read: 72 h treatment, resazurin assay, mean ± SEM.

With `CC(=O)OC[C@H]1O[C@H](Sc2ccccc2)[C@H](OC(C)=O)[C@@H](N=C=S)[C@@H]1OC(C)=O` [Compound 15α, Phenyl 2,4,6-tri-O-acetyl-3-isothiocyanato-1,3-dideoxy-1-thio-α-D-glucopyranoside], the IC50 in assay [1] was 14.4 µM; in assay [2] it was 10.2 µM; in assay [3], 4.2 µM; in assay [4], 8.3 µM; in assay [5] (setting [9]) it was 17.7 ± 1 µM; in assay [6] (setting [9]), 18.8 ± 2.4 µM. Further, the IC50 in assay [7] (A549, 72 h treatment, resazurin assay, mean ± SEM) was determined as 14.1 ± 2.9 µM; in assay [8] (setting [9]) it was 15.3 ± 2.1 µM. Besides, in assay [6], the “S.I. MeWo (Selectivity Index)” value was 1.0±0.1. The “S.I. A549 (Selectivity Index)” value in assay [7] came out at 1.4±0.3. Besides, in assay [8], the “S.I. T24 (Selectivity Index)” value is recorded as 1.2±0.1.

In the case of `CC(=O)OC[C@H]1O[C@@H](S(C)(=O)=O)[C@H](OC(C)=O)[C@@H](N=C=S)[C@@H]1OC(C)=O` [Compound 19β, Methyl 2,4,6-tri-O-acetyl-3-isothiocyanato-1,3-dideoxy-1-sulfonyl-β-D-glucopyranose], the IC50 in assay [1] is 37.1 µM; in assay [2] it was about 48.5 µM; in assay [3], about 24.7 µM; in assay [4], 45.7 µM; in assay [5] (72 h) it was 138 ± 22.5 µM; in assay [6] (72 h), 77.1 ± 14.4 µM. In addition, the IC50 came out at 98 ± 24 µM in assay [7] (A549, 72 h) and 51.8 ± 2.7 µM in assay [8] (72 h). Besides, the “S.I. MeWo (Selectivity Index)” value in assay [6] was found to be 1.9±0.3. In assay [7], the “S.I. A549 (Selectivity Index)” value was 1.5±0.1. Further, the “S.I. T24 (Selectivity Index)” value in assay [8] was 2.6±0.3.

On to `CCS(=O)(=O)[C@H]1O[C@H](COC(C)=O)[C@@H](OC(C)=O)[C@H](N=C=S)[C@H]1OC(C)=O` [Compound 20α, Ethyl 2,4,6-tri-O-acetyl-3-isothiocyanato-1,3-dideoxy-1-sulfonyl-α-D-glucopyranose], for which the IC50 in assay [1] was 30.3 µM; in assay [2] it was 71.9 µM; in assay [3], 19.9 µM; in assay [4] it was 74 µM; in assay [5] (72 h), over 100 µM; in assay [6] (72 h), 95.3 ± 44.8 µM. The IC50 is 92.4 ± 25.7 µM in assay [7] (A549, 72 h) and 55.8 ± 6 µM in assay [8] (72 h). Also, in assay [6], the “S.I. MeWo (Selectivity Index)” value is 1.9±0.2. For the same compound, the “S.I. A549 (Selectivity Index)” value in assay [7] is 2.1±0.1. Further, the “S.I. T24 (Selectivity Index)” value in assay [8] is 2.9±0.8.

As for `CCS(=O)(=O)[C@@H]1O[C@H](COC(C)=O)[C@@H](OC(C)=O)[C@H](N=C=S)[C@H]1OC(C)=O` [Compound 20β, Ethyl 2,4,6-tri-O-acetyl-3-isothiocyanato-1,3-dideoxy-1-sulfonyl-β-D-glucopyranose], the IC50 worked out at 45.1 µM in assay [1]; 37.2 µM in assay [2]; 19.8 µM in assay [3]; 34.7 µM in assay [4]; 84.9 ± 15.2 µM in assay [5] (72 h); 53.6 ± 7.4 µM in assay [6] (72 h). In addition, the IC50 stood at 47.9 ± 10 µM in assay [7] (A549, 72 h) and 39.3 ± 3.7 µM in assay [8] (72 h). Further, in assay [6], the “S.I. MeWo (Selectivity Index)” value was 1.6±0.3. Moreover, the “S.I. A549 (Selectivity Index)” value in assay [7] amounted to 1.9±0.3. For the same compound, the “S.I. T24 (Selectivity Index)” value in assay [8] is given as 2.1±0.2.

`CC(=O)OC[C@H]1O[C@@H](S(=O)(=O)c2ccccc2)[C@H](OC(C)=O)[C@@H](N=C=S)[C@@H]1OC(C)=O` [Compound 21β, Phenyl 2,4,6-tri-O-acetyl-3-isothiocyanato-1,3-dideoxy-1-sulfonyl-β-D-glucopyranose]: the 50% inhibitory concentration (IC50) is 24.9 µM in assay [1]; 19.7 µM in assay [2]; 13.1 µM in assay [3]; about 48.3 µM in assay [4]; 55.7 ± 2.4 µM in assay [5] (72 h); 43.5 ± 9.4 µM in assay [6] (72 h). For the same compound, the IC50 in assay [7] (A549, 72 h) came out at 37.5 ± 8.6 µM; in assay [8] (72 h), 36.4 ± 9.3 µM. Further, the “S.I. MeWo (Selectivity Index)” value in assay [6] turned out to be 1.5±0.3. For the same compound, in assay [7], the “S.I. A549 (Selectivity Index)” value stood at 1.7±0.4. The “S.I. T24 (Selectivity Index)” value in assay [8] came to 1.9±0.4.
